Assay results taken from ChEMBL document CHEMBL1287642, “Synthesis, antiviral activity and cytotoxicity evaluation of Schiff bases of some 2-phenyl quinazoline-4(3)H-ones” (Eur J Med Chem, 2010).
Values after ≈ are worked out from the molar mass of the structure shown.

These compounds were tested on Vaccinia virus (assay: Antiviral activity against Vaccinia virus infected in human HEL cells assessed as protection against virus-induced cytopathogenicity after 2 days). Details: Orthopoxvirus vaccinia, 48 h.
Type: functional, organism-based

Compound | EC50
COc1ccccc1/C=N/n1c(-c2ccccc2)nc2ccccc2c1=O | > 20 µg/mL
Nc1nc2c(ncn2COC(CO)CO)c(=O)[nH]1 [GANCICLOVIR] | > 100 µg/mL
NC(=O)c1ncn([C@@H]2O[C@H](CO)[C@@H](O)[C@H]2O)n1 [RIBAVIRIN] | > 250 µg/mL
O=c1c2ccccc2nc(-c2ccccc2)n1/N=C/c1cccc([N+](=O)[O-])c1 | > 20 µg/mL
COc1ccc(/C=N/n2c(-c3ccccc3)nc3ccccc3c2=O)cc1O | 20 µg/mL (≈ 53.9 µM)
O=c1c2ccccc2nc(-c2ccccc2)n1/N=C/c1ccccc1O | 0.8 µg/mL (≈ 2.34 µM)
C/C(=N\n1c(-c2ccccc2)nc2ccccc2c1=O)c1ccccc1 | > 100 µg/mL
Nc1ccn(C[C@@H](CO)OCP(=O)(O)O)c(=O)n1.O.O [CIDOFOVIR] | 8 µg/mL
O=c1c2ccccc2nc(-c2ccccc2)n1/N=C/c1ccc(O)cc1 | 12 µg/mL (≈ 35.2 µM)
O=c1[nH]c(=O)n([C@H]2C[C@H](O)[C@@H](CO)O2)cc1/C=C/Br [BRIVUDINE] | 4 µg/mL (≈ 12 µM)
C/C(=N\n1c(-c2ccccc2)nc2ccccc2c1=O)c1ccc(O)cc1 | > 100 µg/mL
COc1ccc(/C=N/n2c(-c3ccccc3)nc3ccccc3c2=O)cc1 | 9 µg/mL (≈ 25.3 µM)
O=c1c2ccccc2nc(-c2ccccc2)n1/N=C/c1ccc(Cl)cc1 | 20 µg/mL (≈ 55.6 µM)
O=c1c2ccccc2nc(-c2ccccc2)n1/N=C/c1ccccc1 | 9 µg/mL (≈ 27.7 µM)
